Two molecules from article PMC8234803, “In Vitro Metabolism of Six C-Glycosidic Flavonoids from Passiflora incarnata L” (International Journal of Molecular Sciences, 2021) can be followed below.

Series [1] is described as follows: Stability testing in test buffer (HBSS pH 6.0) under assay conditions, HPLC-DAD. The settings on record: 10 µM in HBSS pH 6.0, 37 °C, 5% CO2. The format is physicochemical. On the procedure: To guarantee the stability of all test substances during the metabolism assay on Caco-2 cells, they were incubated in the test buffer under assay conditions. Test samples were collected each hour for 5 h and were measured via HPLC-DAD.
To ensure stability during the Caco-2 metabolism experiments, all test substances were dissolved in DMSO to a concentration of 20 mM and diluted to 10 µM in an appropriate volume of HBSS (pH 6.0), resulting in a DMSO concentration of less than 1%. The test solution (1 mL) was aliquoted into a 12-well Transwell® plate and incubated for 5 h in an atmosphere of 5% CO2 and 90% relative humidity at 37 °C. Test samples (100 µL) were collected after t = 0, 1, 2, 3, 4, and 5 h and measured via HPLC-DAD. The peak area of the test substance at time t = 0 h was defined as 100%, and all other peak areas were related to calculate the proportional stability. The stability was calculated as % = area/area0 × 100. Stability testing was performed on three independent days with freshly prepared solutions (n = 3).
The system consisted of the following: Elite LaChrom with an L2200 autosampler, L2130 pump, L2350 column oven, L2444 DAD, and EZChrom Elite 3.1.7 software (Hitachi, Tokyo, Japan); column: Kinetex® Biphenyl, 100 Å, 250-4.6 mm (5 µm, same material precolumn; Phenomenex, Torrance, CA, USA); injection volume 30 µL; oven temp.: 25 °C; autosampler temp.: 10 °C; detection wavelength: 340 nm; flow: 1.2 mL/min; A = H2O + 0.1% TFA, B = acetonitrile + 0.1% TFA; gradient: 0–2 min 10% B, 2–10 min 10% B → 100% B, 10–11 min 100% B → 10% B, 11–15 min 10% B.

The test system of another series is Caco-2 cells. Kind of series: MTT assay under metabolic conditions (cell viability). The format is cell-based, human. Conditions: 10, 25, 50, 75, 100 µM in HBSS (pH 6.0), 5 h incubation. The procedure:
(§1) All six substances were tested in five different dilutions in HBSS (pH 6.0). The determined viability values of O, IO, S, IS, V, and IV are listed in the Supplementary Materials (Figure S2).
(§2) Caco-2 cells in the logarithmic growth phase were seeded in 96-well plates at a density of 3 × 10^4 cells/well and incubated at 37 °C in an atmosphere of 5% CO2 and constant moisture in an incubator. After 24 h, the cell culture medium was removed, and 100 µL of HBSS solution (negative control), 0.5% DMSO in HBSS solution (solvent control), or flavonoid samples in HBSS solution (6 flavonoids at concentrations of 10, 25, 50, 75, and 100 µM) was applied in quintuplicate and incubated for 5 h. Afterwards, the HBSS solutions were removed and replaced with an MTT solution in DMEM (0.4 mg/mL) and incubated for another 3 h at 37 °C. Then, the MTT solution was discarded, and the cells were fixed with a 10% SDS solution in PBS and stored at room temperature in the dark. After 24 h, the absorbance was measured on a Tecan microplate reader (Tecan Trading AG, Switzerland) at 560 nm. The viability rate was calculated as % = A/A0 × 100, with A as the average absorbance value of the treatment and solvent control groups and A0 as the average absorbance value of the negative control group. The assay was performed three times in pentaplicate.
(§3) The human colon adenocarcinoma cell line Caco-2 was obtained from the ATCC (American Type Culture Collection, Manassas, VA, USA). The cell line was determined to be free of mycoplasma contamination by PCR and culture from GATC Biotech AG (Konstanz, Germany). The cells were cultured in DMEM supplemented with 10% (v/v) FBS, 1% (v/v) NEAA, and 1% (v/v) antibiotics (penicillin/streptomycin) in an atmosphere of 5% CO2 and 90% relative humidity at 37 °C. The culture medium was replaced every 3 days, and the cells were split 1:5 using trypsin-EDTA once 90% confluence was obtained.

Test in series [2]: as above
In kind it is cell-based, human. Conditions: human, 5 h incubation, read-out: Viability of Caco-2 cells; for viability at 5 h, 10 µM: Caco-2, 10 µM in HBSS (pH 6.0); for viability at 5 h, 100 µM: Caco-2, 100 µM in HBSS (pH 6.0). On the procedure: as §1, §2, §3

In another series the test system is Caco-2 cell monolayer. Nature of the series: Caco-2 monolayer metabolism experiment, metabolites identified via UHPLC-DAD-MS(/MS). Conditions: for Extent of phase I and II metabolism (in words): independent of incubation time and concentration. The format is in vitro ADME, human. The procedure:
To obtain information on the in vitro metabolism of the six tested C-glycosidic flavonoids in the intestine, experiments were carried out using the Caco-2 monolayer model (Figure 2). Metabolite profiles were characterized at two different concentrations (10 and 100 µM; n = 3) and after two different incubation times (3 or 5 h; n = 3) in order to determine the influence of concentration and time on the metabolism reactions that occurred. Furthermore, to analyze the distribution of the observed metabolites, samples were collected from the cell lysate and the apical and basolateral compartments. All samples of the metabolism experiments using the Caco-2 cell monolayer were analyzed using UHPLC-DAD-MS and UHPLC-DAD-MS/MS. Metabolites were identified by libraries that were prepared for each compound (Tables S1–S6). The O and IO libraries contained 67 metabolites (Tables S1 and S2), the S and IS libraries contained 106 metabolites (Tables S3 and S4), and the V and IV libraries contained 71 possible metabolites (Tables S5 and S6).
To form a confluent and differentiated monolayer, cells at passages 16–45 were seeded into the inserts of 12-well Transwell® plates at a density of 3.0 × 10^5 cells/cm^2. Afterwards, the culture medium was replaced every day, and the metabolism experiment was performed 21 days after seeding. The apical and basolateral compartments contained 0.5 and 1.5 mL of cell culture medium, respectively.
On day 21, the cell culture medium was removed from the apical and basolateral compartments, and the Caco-2 cell monolayer was washed two times with prewarmed HBSS. The Transwell® plates containing HBSS were incubated at 37 °C for 15 min to measure the transepithelial electrical resistance (TEER) value. The integrity of the cell monolayers was evaluated by TEER values between the apical and basolateral sides with the Evohm2 system (World Precision Instruments, Sarasota, FL, USA). The cell inserts were only used for the metabolism experiments if the resistance exceeded 350 Ω/cm^2. The six test substances were dissolved in DMSO to a stock solution of 20 mM. The HBSS was adjusted to pH 6.0 and 7.4 with 1 M HCl. Afterwards, the stock solutions were diluted to 10 or 100 µM in an appropriate volume of HBSS (pH 6.0) to obtain a DMSO concentration of <1%. The test solutions were added to the apical side (0.5 mL), while the basolateral side was filled with 1.5 mL of HBSS (pH 7.4). The Transwell® plates were incubated at 37 °C for 3 or 5 h, respectively. After this period, solutions from the apical and basolateral compartments were collected in separate tubes, washed twice with 500 µL of HBSS, and then collected again. The samples were lyophilized and stored at −20 °C until they were measured using UHPLC-DAD-MS. After the experiment, Transwell® inserts were apically (0.5 mL) and basolaterally (1.5 mL) filled with HBSS and warmed to 37 °C for 20 min. Then, the TEER values were measured to guarantee the integrity of the monolayer during the experiment. The experiment was performed in triplicate for each substance, concentration, and incubation time.
After the metabolism experiment, cell monolayers were washed twice with PBS and incubated with 200 µL of trypsin-EDTA for 10 min at 37 °C in an atmosphere of 5% CO2 and constant humidity in the incubator. The cells were removed from the well by pipetting up and down, and were collected in a tube. The well was washed twice with PBS (1 mL), and the wash solution was also collected in the corresponding tube. The mixture was centrifuged (1000× g rpm, 5 min), and the supernatant was discarded.

Setting [3] is: initial concentration 100 µM, 3 h, apical compartment.
The mark [4] stands for this setting: initial concentration 100 µM, 3 h, basolateral compartment.
[5] abbreviates: initial concentration 100 µM, 5 h, apical compartment.

“Also recorded” adds a separate entry of the source.

As to `O=c1cc(-c2ccc(O)cc2)oc2cc(O)c([C@@H]3O[C@H](CO)[C@@H](O)[C@H](O)[C@H]3O)c(O)c12` [IV, isovitexin], the “Stability (content relative to t = 0 h)” value in series [1] (after 3 h of incubation) turned out to be 96%; in series [1] (after 5 h incubation), 95%. In addition, the “Effect on the viability of Caco-2 cells (in words)” value in the series on Caco-2 cells is reported as “slight, concentration-dependent reductions”. Also, the viability at 5 h, 10 µM in series [2] is 92%. For the same molecule, the viability at 5 h, 100 µM in series [2] came out at 82%. In addition, the “Extent of metabolism (in words)” value with Caco-2 cell monolayer (10 µM, 3 and 5 h) is “broader ranges of phase I and II metabolites”; in the series with Caco-2 cell monolayer (100 µM, 3 and 5 h), “extensive metabolism”. The “Metabolites of the aglycones (cleavage of the C–C glycosidic bond)” value in the series on Caco-2 cell monolayer (100 µM approach) was “metabolites of the corresponding aglycones apigenin and luteolin were also detected”. Besides, the “Possible metabolite (phase II metabolite identified by MS/MS fragmentation and comparison with reference compound after enzymatic hydrolysis)” value in the series with Caco-2 cell monolayer (glucuronidase/sulfatase cleavage, UHPLC-DAD-MS/MS) is given as “Methoxy-luteolin-sulfate”. For the same molecule, the “Extent of phase I and II metabolism (in words)” value in the series on Caco-2 cell monolayer was “highly metabolized in phase I and II reactions”. Besides, the Possible metabolite detected result in the series with Caco-2 cell monolayer (initial concentration 10 µM, 3 h, apical compartment) is recorded as “Hydroxy-methoxy-isovitexin; also recorded: Hydroxy-apigenin-sulfate; also recorded: Hydroxy-methoxy-apigenin”; with Caco-2 cell monolayer (initial concentration 10 µM, 5 h, apical compartment), “Hydroxy-methoxy-isovitexin; also recorded: Hydroxy-dimethoxy-isovitexin; also recorded: Hydroxy-apigenin-sulfate”; in the series with Caco-2 cell monolayer (setting [3]), “Hydroxy-apigenin-sulfate; also recorded: Hydroxy-dimethoxy-isovitexin; also recorded: Hydroxy-methoxy-apigenin; also recorded: Hydroxy-methoxy-isovitexin”; in the series on Caco-2 cell monolayer (setting [4]), “Hydroxy-dimethoxy-isovitexin”; with Caco-2 cell monolayer (setting [5]), “Hydroxy-methoxy-isovitexin; also recorded: Hydroxy-apigenin-sulfate; also recorded: Hydroxy-dimethoxy-isovitexin; also recorded: Hydroxy-methoxy-apigenin”.
As for `O=c1cc(-c2ccc(O)cc2)oc2c([C@@H]3O[C@H](CO)[C@@H](O)[C@H](O)[C@H]3O)c(O)cc(O)c12` [V, vitexin], the “Stability (content relative to t = 0 h)” value in series [1] (after 3 h of incubation) is on record as “approximately 100%”. Besides, the “Effect on the viability of Caco-2 cells (in words)” value with Caco-2 cells is recorded as “slight, concentration-dependent reductions”. Also, in series [2], the viability at 5 h, 10 µM was 92% and the viability at 5 h, 100 µM stood at 83%. For the same molecule, in the series with Caco-2 cell monolayer (10 µM, 3 and 5 h), the “Extent of metabolism (in words)” value is on record as “very limited metabolism” and the “Phase II conjugates containing glucuronic acid or sulfates” value was “No phase II conjugates containing glucuronic acid or sulfates were detectable”. Also, in the series on Caco-2 cell monolayer (100 µM, 3 and 5 h), the “Extent of metabolism (in words)” value was “a few hydroxylated and methoxylated derivatives”; the “Phase II metabolites with glucuronic acid or sulfates” value is on record as “lacked the presence of phase II metabolites with glucuronic acid or sulfates”. Further, the “Extent of phase I and II metabolism (in words)” value in the series with Caco-2 cell monolayer was “poorly metabolized in phase I and II reactions”. Besides, in the series with Caco-2 cell monolayer (setting [3]), the Possible metabolite detected result is “Hydroxy-methoxy-vitexin”. Further, the Possible metabolite detected result in the series with Caco-2 cell monolayer (setting [4]) is reported as “Hydroxy-methoxy-vitexin”. Besides, the Possible metabolite detected entry with Caco-2 cell monolayer (setting [5]) is given as “Hydroxy-vitexin”.
